In PMC2952919, “Error-Prone Translesion DNA Synthesis by Escherichia coli DNA Polymerase IV (DinB) on Templates Containing 1,2-dihydro-2-oxoadenine” (Journal of Nucleic Acids, 2010):

Target: T1, Pol IV (DinB; HT-dinB) (Escherichia coli, UniProt Q47155)
T1 construct: full-length DinB with His tag (plasmid pET16B-DinB), expressed in E. coli BL21(DE3)/pLysS; tag kept
T1 sequence (Q47155 1-351): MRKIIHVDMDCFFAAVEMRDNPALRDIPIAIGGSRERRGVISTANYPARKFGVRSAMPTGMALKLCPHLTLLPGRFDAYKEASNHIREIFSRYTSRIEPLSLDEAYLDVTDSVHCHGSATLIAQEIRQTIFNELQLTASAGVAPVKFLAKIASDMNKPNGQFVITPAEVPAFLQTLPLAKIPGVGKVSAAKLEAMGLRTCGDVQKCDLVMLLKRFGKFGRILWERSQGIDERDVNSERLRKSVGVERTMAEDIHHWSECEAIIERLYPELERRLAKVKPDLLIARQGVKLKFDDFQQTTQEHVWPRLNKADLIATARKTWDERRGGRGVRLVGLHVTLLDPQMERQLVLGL
Test: primer extension, […]-labelled primer, gel imaging
Assay type: biochemical
Settings: insertion opposite 2-oxodA (primer 3/template 2, 50 fmol in 10 μl); Pol IV 50 nM; 20°C, 60 min; pH 7.4, 7.5 mM MgCl2; dNTP 0.02~500 μM; printed Km unit is implausible (a rate unit)

Km [fmol/mL/min]	Compound
8.5	Nc1ccn([C@H]2C[C@H](O)[C@@H](COP(=O)(O)OP(=O)(O)OP(=O)(O)O)O2)c(=O)n1 [dCTP]
25.6	Cc1cn([C@H]2C[C@H](O)[C@@H](COP(=O)(O)OP(=O)(O)OP(=O)(O)O)O2)c(=O)[nH]c1=O [dTTP]
